PMC11325084, “Pharmacokinetics and tissue distribution of LN002, a new compound alternative oxidase inhibitor against Cryptosporidium in rats” (Frontiers in Pharmacology, 2024)
Like-named read-outs stand apart in the source and are kept apart here.

Experiment: Pharmacokinetics of LN002 in rat plasma after single intravenous injection or oral gavage
Format: in vivo, Sprague–Dawley (SD) rats
Details: rats; for AUC(0-t): read-out: AUC0–24 h
Description: A total of 24 SD rats, half for each sex, were randomly distributed into four groups and used in the plasma PK study. Heparin sodium was used to prevent blood clotting. Groups 1, 2, and 3 were single-dose oral administration groups, and the administered doses were 100, 200, and 400 mg/kg, respectively. The fourth group was a single-dose group, in which the subjects received 1 mg/kg LN002 via tail vein intravenous injection (In the oral administration group, the drugs were dissolved in 0.5% sodium carboxymethylcellulose, whereas those in the intravenous injection group were dissolved in N,N-dimethylformamide). After administration for each group, approximately 200–300 μL of plasma samples were collected from the tail vein at predefined times (0.167, 0.5, 0.75, 1, 2, 3, 4, 6, 8, 12, and 24 h) ([Song et al., 2021a]). Subsequently, these samples were then placed in centrifuge tubes containing heparin sodium, subjected to centrifugation at 5000 rpm for 10 min at 4°C, and the resulting supernatant was collected and stored at −20°C until further analysis. An aliquot of 100 µL of rat plasma was transferred into a 2 mL Eppendorf (EP) tube and precipitated with 300 µL of acetonitrile. The mixture was vortexed for 1 min, then centrifuged at 13,000 rpm at 4°C for 10 min, and passed through a 0.22 μm filter membrane. Final analysis was conducted by injecting 20 µL of supernatant into HPLC. A Shimadzu LC-20A system (Shimadzu Technologies, Kyoto, Japan) equipped with a LabSolutions system (version 5.1) system was used for HPLC analysis. The separation process utilized an ARD-C18 column (250 mm × 4.6 mm, 5 µm) (Zhongpu Technology Co., Ltd., Fuzhou, China). The analytes were detected using a UV detector at 333 nm. The chromatographic conditions used an isocratic mobile phase that combines methanol (solvent A) and deionized water (solvent B) (75:25, v/v), and they were propelled through the column at a constant flow rate of 1 mL/min, ensuring uniform separation. The injection volume was 20 μL. The temperature of the column was set to 40°C. Pharmacokinetic data were obtained via non-compartmental PK analysis of total concentration versus time profiles for plasma using Phoenix WinNonlin 8.2 (Certara, L.P., Princeton, NJ, United States). Statistical analysis and graphing were undertaken using GraphPad Prism 9.5 for Windows (GraphPad Software, Inc., La Jolla, CA, United States).

[1] = both sexes, Sprague-Dawley, rat, iv, plasma, i.v. 1 mg/kg, n = 6, mean ± SD
[2] = both sexes, Sprague-Dawley, rat, plasma, iv, 1 mg/kg, i.v. 1 mg/kg, n = 6, mean ± SD
[3] = both sexes, Sprague-Dawley, rat, plasma, po, 100 mg/kg, oral 100 mg/kg, n = 6, mean ± SD
[4] = both sexes, Sprague-Dawley, rat, plasma, po, 200 mg/kg, oral 200 mg/kg, n = 6, mean ± SD
[5] = both sexes, Sprague-Dawley, rat, plasma, po, 400 mg/kg, oral 400 mg/kg, n = 6, mean ± SD
[6] = both sexes, Sprague-Dawley, rat, plasma, po, 400 mg/kg, oral single dose, range across 100, 200 and 400 mg/kg
[7] = both sexes, Sprague-Dawley, rat, plasma, oral 100 mg/kg, n = 6, mean ± SD
[8] = both sexes, Sprague-Dawley, rat, plasma, oral 200 mg/kg, n = 6, mean ± SD
[9] = both sexes, Sprague-Dawley, rat, plasma, oral 400 mg/kg, n = 6, mean ± SD

N#C/C(=C\c1c[nH]nc1-c1ccccc1)c1nn(-c2ccccc2)c(N)c1C#N [LN002, 5-amino-3-[1-cyano-2-(3-phenyl-4-vinopyrazole))-1-phenyl-4-vinopyrazole]
Tmax (both sexes, Sprague-Dawley, rat, iv, plasma, i.v. 1 mg/kg, n = 6): 0.75 h | AUC(0-inf) [1]: 8650 ± 1940 ng·h/mL | clearance [1]: 1.83 mL/min/kg | Vd (both sexes, Sprague-Dawley, rat, iv, plasma, i.v. 1 mg/kg, n = 6, mean ± SD, read-out: Vd): 1.69 ± 0.44 L/kg | Cmax [2]: 2940 ± 2160 ng/mL | half-life [2]: 10.9 ± 6.56 h | AUC(0-t) (both sexes, Sprague-Dawley, rat, plasma, iv, 1 mg/kg, plasma, i.v. 1 mg/kg, n = 6, mean ± SD): 7020 ± 1520 ng·h/mL | Cmax [3]: 850 ± 190 ng/mL | half-life [3]: 18 ± 5.82 h | bioavailability (both sexes, Sprague-Dawley, rat, plasma, po, 100 mg/kg, oral 100 mg/kg, read-out: F (oral bioavailability)): 0.32% | AUC(0-t) (both sexes, Sprague-Dawley, rat, plasma, po, 100 mg/kg, plasma, oral 100 mg/kg, n = 6, mean ± SD): 2280 ± 227 ng·h/mL | CL/F (both sexes, Sprague-Dawley, rat, plasma, po, 100 mg/kg, plasma, oral 100 mg/kg, n = 6, mean ± SD, read-out: Cl (Cl/F in text) (converted)): 433 mL/min/kg | Cmax [4]: 1670 ± 106 ng/mL | half-life [4]: 18 ± 14.8 h | bioavailability (both sexes, Sprague-Dawley, rat, plasma, po, 200 mg/kg, oral 200 mg/kg, read-out: F (oral bioavailability)): 0.29% | AUC(0-t) (both sexes, Sprague-Dawley, rat, plasma, po, 200 mg/kg, plasma, oral 200 mg/kg, n = 6, mean ± SD): 4070 ± 779 ng·h/mL | CL/F (both sexes, Sprague-Dawley, rat, plasma, po, 200 mg/kg, plasma, oral 200 mg/kg, n = 6, mean ± SD, read-out: Cl (Cl/F in text) (converted)): 524 mL/min/kg | Cmax [5]: 4030 ± 410 ng/mL | half-life [5]: 18.8 ± 11.4 h | bioavailability (both sexes, Sprague-Dawley, rat, plasma, po, 400 mg/kg, oral 400 mg/kg, read-out: F (oral bioavailability)): 0.27% | Cmax [6]: 850 to 4030 ng/mL | half-life [6]: 18 to 18.8 h | bioavailability (both sexes, Sprague-Dawley, rat, plasma, po, 400 mg/kg, oral single dose, range across 100, 200 and 400 mg/kg, read-out: F): 0.27 to 0.32% | AUC(0-t) (both sexes, Sprague-Dawley, rat, plasma, po, 400 mg/kg, plasma, oral 400 mg/kg, n = 6, mean ± SD): 7500 ± 507 ng·h/mL | CL/F (both sexes, Sprague-Dawley, rat, plasma, po, 400 mg/kg, plasma, oral 400 mg/kg, n = 6, mean ± SD, read-out: Cl (Cl/F in text) (converted)): 650 mL/min/kg | AUC(0-t) (both sexes, Sprague-Dawley, rat, plasma, po, 400 mg/kg, plasma, oral single dose, range across 100, 200 and 400 mg/kg): 2280 to 7500 ng·h/mL | CL/F (both sexes, Sprague-Dawley, rat, plasma, po, 400 mg/kg, plasma, oral single dose, range across 100, 200 and 400 mg/kg, read-out: Cl/F): 433 to 650 mL/min/kg | Tmax (both sexes, Sprague-Dawley, rat, plasma, oral 100 mg/kg, n = 6): 1 h | AUC(0-inf) [7]: 3530 ± 734 ng·h/mL | Vd/F [7]: 582 ± 270 L/kg | Tmax (both sexes, Sprague-Dawley, rat, plasma, oral 200 mg/kg, n = 6): 1 h | AUC(0-inf) [8]: 6030 ± 2310 ng·h/mL | Vd/F [8]: 764 ± 314 L/kg | AUC(0-inf) [9]: 11400 ng·h/mL | Vd/F [9]: 869 ± 279 L/kg | Tmax (both sexes, Sprague-Dawley, rat, plasma, oral single dose, across 100, 200 and 400 mg/kg): 1 h | PK behaviour over dose (in words) (oral 100, 200 and 400 mg/kg): linear | Vd (plasma, oral single dose, range across 100, 200 and 400 mg/kg): 581.54 to 869.21 L/kg
